The source of these data is article PMC7429850, “Critical enzymes for biosynthesis of cucurbitacin derivatives in watermelon and their biological significance” (Communications Biology, 2020).

Molecules are shown by their SMILES.

This assay deals with T1, ACT3 (Cla022713).
T1 construct: plant material in Methods: Number One
Format: biochemical, Citrullus lanatus. Particulars: 10 mM acetyl-CoA, 50 mM sodium phosphate pH 7.4, 30 °C; C16-O-acetylation. The text has this:
acetylation assay, product by HPLC/LC-MS, Michaelis-Menten fit on ACT3 (Cla022713)
As for `CC(=O)OC(C)(C)/C=C/C(=O)[C@](C)(O)[C@H]1[C@H](O)C[C@@]2(C)[C@@H]3CC=C4[C@@H](C=C(O[C@@H]5O[C@H](CO)[C@@H](O)[C@H](O)[C@H]5O)C(=O)C4(C)C)[C@]3(C)C(=O)C[C@]12C` [CuE-Glu], the Km was determined as 11.6 ± 1.62 µM.
For the molecule `CC(C)(O)/C=C/C(=O)[C@](C)(O)[C@H]1[C@H](O)C[C@@]2(C)[C@@H]3CC=C4[C@@H](C=C(O)C(=O)C4(C)C)[C@]3(C)C(=O)C[C@]12C` [CuI], the Km was found to be 8.62 ± 0.95 µM.
Under `CC(=O)OC(C)(C)/C=C/C(=O)[C@](C)(O)[C@H]1[C@H](O)C[C@@]2(C)[C@@H]3CC=C4[C@@H](C[C@H](O)C(=O)C4(C)C)[C@]3(C)C(=O)C[C@]12C` [CuB] stands 11.8 ± 1.74 µM.
In the case of `CC(=O)OC(C)(C)/C=C/C(=O)[C@](C)(O)[C@H]1[C@H](O)C[C@@]2(C)[C@@H]3CC=C4[C@@H](C=C(O)C(=O)C4(C)C)[C@]3(C)C(=O)C[C@]12C` [CuE], the Km stood at 7.63 ± 4.83 µM.
With `CC(C)(O)/C=C/C(=O)[C@](C)(O)[C@H]1[C@H](O)C[C@@]2(C)[C@@H]3CC=C4[C@@H](C[C@H](O)C(=O)C4(C)C)[C@]3(C)C(=O)C[C@]12C` [CuD] the figure was 10.4 ± 1.19 µM.

The Km is the substrate concentration at which the rate is half of its maximum.
